Measurements: US20060046966A1, “Antipicornaviral compounds and compositions, their pharmaceutical uses, and materials for their synthesis” (Agouron Pharmaceuticals, Inc., priority 1998, published 2006)
Like-named read-outs stand apart in the source and are kept apart here.

Legend:
HRV (13) = assay: Antirhinoviral H1-HeLa cell culture assay, HRV serotype 13; assay type: cell-based, human rhinovirus; conditions: Human rhinovirus sp., H1-HeLa, H1-HeLa cells, XTT
Experimental: (§1) In this cell protection assay, the ability of compounds to protect cells against HRV infection was measured by the XTT dye reduction method, which is described in Weislow et al., J. Natl. Cancer Inst. 1989, vol. 81, 577-586.
(§2) H1-HeLa cells were infected with HRV-14 at a multiplicity of infection (m.o.i.) of 0.13 (virus particles/cell) or mock-infected with medium only. Infected or mock-infected cells were resuspended at 8×10^5 cells per mL, and incubated with appropriate concentrations of the compounds to be tested. Two days later, XTT/PMS was added to test plates and the amount of formazan produced was quantified spectrophotometrically at 450/650 nm. The EC50 value was calculated as the concentration of compound that increased the percentage of formazan production in compound-treated, virus-infected cells to 50% of that produced by compound-free, mock-infected cells. The 50% cytotoxic dose (CC50) was calculated as the concentration of compound that decreased the percentage of formazan produced in compound-treated, mock-infected cells to 50% of that produced by compound-free, mock-infected cells. The therapeutic index (TI) was calculated by dividing the CC50 value by the EC50 value.
(§3) All strains of human rhinovirus (HRV) for use in this assay were purchased from American Type Culture Collection (ATCC), except for HRV serotype-14 (produced from the infectious cDNA clone constructed by Dr. Robert Rueckert, Institute for Molecular Virology, University of Wisconsin, Madison, Wis.). HRV stocks were propagated and viral assays were performed in H1-HeLa cells (ATCC). Cells were grown in minimal essential medium with 10% fetal bovine serum, available from Life Technologies (Gaithersburg, Md.).
(§4) The compounds were tested against control compounds WIN 51711, WIN 52084, and WIN 54954 (obtained from Sterling-Winthrop Pharmaceuticals), Pirodavir (obtained from Janssen Pharmaceuticals), and Pleconaril (prepared according to the method described in Diana et al., J. Med. Chem 1995, vol. 38, 1355). […]

[1] = biological target: T1, rhinovirus 3C protease from HRV serotype-14 (Human rhinovirus 14, UniProt P03303); assay: Inhibition of rhinovirus 3C protease (FRET assay), serotype 14; assay type: biochemical; conditions: HRV serotype-14 3C protease; progress curves in enzyme start experiments; read-out: Protease Inhibition kobs/[I]
T1 construct: Recombinant rhinovirus 3C proteases; made in house
Experimental: Stock solutions (50 mM, in DMSO) of various compounds were prepared; dilutions were in the same solvent. Recombinant rhinovirus 3C proteases (see Birch et al., “Purification of recombinant human rhinovirus 14 3C protease expressed in Escherichia coli,” Protein Expr. Pur. 1995, 6(5), 609-618) from serotypes 14, 16, and 2 were prepared by the following standard chromatographic procedures: (1) ion exchange using Q Sepharose Fast Flow from Pharmacia; (2) affinity chromatography using Affi-Gel Blue from Biorad; and (3) sizing using Sephadex G-100 from Pharmacia. Each assay sample contained 2% DMSO, 50 mM tris pH 7.6, 1 mM EDTA, a test compound at the indicated concentration, approximately 1 μM substrate, and 50-100 nM protease. The kobs/I values were obtained from reactions initiated by addition of enzyme rather than substrate. RVP activity was measured in the fluorescence resonance energy transfer assay. The substrate was (N-terminal) DABCYL-(Gly-Arg-Ala-Val-Phe-Gln-Gly-Pro-Val-Gly)-EDANS. In the uncleaved peptide, the EDANS fluorescence was quenched by the proximal DABCYL moiety. When the peptide was cleaved, the quenching was relieved, and activity was measured as an increase in fluorescence signal. In Table 1, all data are for rhinovirus 3C protease from HRV serotype-14 (produced from the infectious cDNA clone constructed by Dr. Robert Rueckert, Institute for Molecular Virology, University of Wisconsin, Madison, Wis.). […] The data in the column designated kobs/[I] were measured from progress curves in enzyme start experiments.

HRV (89) = assay: Antirhinoviral H1-HeLa cell culture assay, HRV serotype 89; assay type: cell-based, human rhinovirus; conditions: Human rhinovirus sp., H1-HeLa cells, XTT
Experimental: as §1, §2, §3
(§5) The compounds were tested against control compounds WIN 51711, WIN 52084, and WIN 54954 (obtained from Sterling-Winthrop Pharmaceuticals), Pirodavir (obtained from Janssen Pharmaceuticals), and Pleconaril (prepared according to the method described in Diana et al., J. Med. Chem 1995, vol. 38, 1355). Antiviral data obtained for the test compounds are shown in Tables 1 and 3, where all data are for HRV serotype-14 unless otherwise noted in parentheses.

HRV (17) = assay: Antirhinoviral H1-HeLa cell culture assay, HRV serotype 17; assay type: cell-based, human rhinovirus; conditions: Human rhinovirus sp., H1-HeLa cells, XTT
Experimental: as §1, §2, §3, §4

HRV (25) = assay: Antirhinoviral H1-HeLa cell culture assay, HRV serotype 25; assay type: cell-based; conditions: Human rhinovirus sp., H1-HeLa cells, XTT
Experimental: as §1
as §2, with “value. […]” for “value.”

HRV (39) = assay: Antirhinoviral H1-HeLa cell culture assay, HRV serotype 39; assay type: cell-based, human rhinovirus; conditions: Human rhinovirus sp., H1-HeLa cells, XTT
Experimental: as §1, §2, §3, §4

HRV (38) = assay: Antirhinoviral H1-HeLa cell culture assay, HRV serotype 38; assay type: cell-based; conditions: Human rhinovirus sp., H1-HeLa cells, XTT
Experimental: as §1
as §2, with “value. […]” for “value.”

HRV (1A) = assay: Antirhinoviral H1-HeLa cell culture assay, HRV serotype 1A; assay type: cell-based; conditions: Human rhinovirus sp., H1-HeLa cells, XTT
Experimental: as §1, §2, §3, §5

HRV (16) = assay: Antirhinoviral H1-HeLa cell culture assay, HRV serotype 16; assay type: cell-based; conditions: Human rhinovirus sp., H1-HeLa cells, XTT
Experimental: as §1, §2, §3, §4

HRV (12) = assay: Antirhinoviral H1-HeLa cell culture assay, HRV serotype 12; assay type: cell-based; conditions: Human rhinovirus sp., H1-HeLa cells, XTT
Experimental: as §1
as §2, with “value. […]” for “value.”

HRV (10) = assay: Antirhinoviral H1-HeLa cell culture assay, HRV serotype 10; assay type: cell-based, human rhinovirus; conditions: Human rhinovirus sp., H1-HeLa, H1-HeLa cells, XTT
Experimental: as §1, §2, §3, §5

HRV (2) = assay: Antirhinoviral H1-HeLa cell culture assay, HRV serotype 2; assay type: cell-based, human rhinovirus; conditions: Human rhinovirus sp., H1-HeLa, H1-HeLa cells, XTT
Experimental: as §1, §2, §3, §5

HRV (30) = assay: Antirhinoviral H1-HeLa cell culture assay, HRV serotype 30; assay type: cell-based; conditions: Human rhinovirus sp., H1-HeLa cells, XTT
Experimental: as §1
as §2, with “value. […]” for “value.”

HRV-14 = assay: Antirhinoviral H1-HeLa cell culture assay, HRV-14; assay type: cell-based, human rhinovirus; conditions: Rhinovirus B, HRV14, H1-HeLa, HRV serotype-14, H1-HeLa cells
Experimental: as §1, §2, §3, §5

HRV (87) = assay: Antirhinoviral H1-HeLa cell culture assay, HRV serotype 87; assay type: cell-based; conditions: Human rhinovirus sp., H1-HeLa cells, XTT
Experimental: as §1
as §2, with “value. […]” for “value.”

HRV (3) = assay: Antirhinoviral H1-HeLa cell culture assay, HRV serotype 3; assay type: cell-based, human rhinovirus; conditions: Human rhinovirus sp., H1-HeLa, H1-HeLa cells, XTT
Experimental: as §1, §2, §3, §4

HRV (9) = assay: Antirhinoviral H1-HeLa cell culture assay, HRV serotype 9; assay type: cell-based, human rhinovirus; conditions: Human rhinovirus sp., H1-HeLa cells, XTT
Experimental: as §1, §2, §3, §4

[2] = system: Coxsackievirus type A-21 (CAV-21); assay: Anticoxsackieviral cell culture assay, CAV-21; assay type: cell-based; conditions: 48 h
Experimental: (§6) Coxsackievirus types A-21 (CAV-21) and B3 (CVB-3) were purchased from American Type Culture Collection (ATCC, Rockville, Md.). Virus stocks were propagated and antiviral assays were performed in H1-HeLa cells (ATCC). Cells were grown in minimal essential medium with 10% fetal bovine serum (Life Technologies, Gaithersburg, Md.).
(§7) The ability of compounds to protect cells against either CAV-21 or CVB-3 infection was measured by the XTT dye reduction method. This method is described in Weislow et al., J. Natl. Cancer Inst. 1989, vol. 81, 577-586. H1-HeLa cells were infected with CAV-21 or CVB-3 at a multiplicity of infection (m.o.i.) of 0.025 or 0.075, respectively, or mock-infected with medium only. H1-HeLa cells were plated at 4×10^4 cells per well in a 96-well plate and incubated with appropriate concentrations of the test compound. One day (CVB-3) or two days (CAV-21) later, XTT/PMS was added to test plates and the amount of formazan produced was quantified spectrophotometrically at 450/650 nm. The EC50 was calculated as the concentration of compound that increased the formazan production in compound-treated, virus-infected cells to 50% of that produced by compound-free, uninfected cells. The 50% cytotoxic dose (CC50) was calculated as the concentration of compound that decreased formazan production in compound-treated, uninfected cells to 50% of that produced in compound-free, uninfected cells. The therapeutic index TI) was calculated by dividing the CC50 by the EC50.
(§8) The compounds were tested against control compounds WIN 54954 (obtained from Sterling-Winthrop Pharmaceuticals), Pirodavir (obtained from Janssen Pharmaceuticals), and Pleconaril (prepared according to Diana et al., J. Med. Chem. 1995, 38, 1355).

[3] = system: Coxsackievirus type B3 (CVB-3); assay: Anticoxsackieviral cell culture assay, CVB-3; assay type: cell-based; conditions: 24 h
Experimental: as §6, §7, §8

[4] = system: enterovirus type 70 (EV 70); assay: Anti-enteroviral cell culture assay, EV 70; assay type: cell-based; conditions: Enterovirus D, MRC5, 96 h; Strain EV-70; MRC-5 cells; four days; XTT
Experimental: (§9) Echovirus type 11 (EV 11) and enterovirus type 70 (EV 70) were purchased from ATCC (Rockville, Md.). Virus stocks were propagated and antiviral assays were performed in MRC-5 cells (ATCC). Cells were grown in minimal essential medium with 10% fetal bovine serum (Life Technologies, Gaithersburg, Md.).
The ability of compounds to protect cells against either EV 11 or EV 70 infection was measured by the XTT dye reduction method (Weislow et al., J. Natl. Cancer Inst. 1989, vol. 81, 577-586). MRC-5 cells were infected with EV 11 or EV 70 at an m.o.i. of 0.003 or 0.004, respectively, or mock-infected with medium only. Infected or uninfected cells were added at 1×10^4 cells per well and incubated with appropriate concentrations of compound. Four days later, XTT/PMS was added to test plates, and the amount of formazan produced was quantified spectrophotometrically at 450/650 nm. The EC50 was calculated as the concentration of compound that increased the formazan production in compound-treated, virus-infected cells to 50% of that produced by compound-free, uninfected cells. The 50% cytotoxic dose (CC50) was calculated as the concentration of compound that decreased formazan production in compound-treated, uninfected cells to 50% of that produced in compound-free, uninfected cells. The therapeutic index (TI) was calculated by dividing the CC50 by the EC50. […]

[5] = system: Echovirus type 11 (EV 11); assay: Anti-echoviral cell culture assay, EV 11; assay type: cell-based; conditions: Enterovirus B, MRC5, 96 h
Experimental: as §9
The ability of compounds to protect cells against either EV 11 or EV 70 infection was measured by the XTT dye reduction method (Weislow et al., J. Natl. Cancer Inst. 1989, vol. 81, 577-586). MRC-5 cells were infected with EV 11 or EV 70 at an m.o.i. of 0.003 or 0.004, respectively, or mock-infected with medium only. Infected or uninfected cells were added at 1×10^4 cells per well and incubated with appropriate concentrations of compound. Four days later, XTT/PMS was added to test plates, and the amount of formazan produced was quantified spectrophotometrically at 450/650 nm. The EC50 was calculated as the concentration of compound that increased the formazan production in compound-treated, virus-infected cells to 50% of that produced by compound-free, uninfected cells. The 50% cytotoxic dose (CC50) was calculated as the concentration of compound that decreased formazan production in compound-treated, uninfected cells to 50% of that produced in compound-free, uninfected cells. The therapeutic index (TI) was calculated by dividing the CC50 by the EC50.
The compounds were tested against control compounds Pirodavir (obtained from Janssen Pharmaceuticals) and Pleconaril (prepared according to Diana et al., J. Med. Chem. 1995, vol. 38, 1355). Antiviral data obtained for the test compounds against strain EV 11 and EV 70 are shown below in Table 5.

T1 sequence (P03303 1538-1719): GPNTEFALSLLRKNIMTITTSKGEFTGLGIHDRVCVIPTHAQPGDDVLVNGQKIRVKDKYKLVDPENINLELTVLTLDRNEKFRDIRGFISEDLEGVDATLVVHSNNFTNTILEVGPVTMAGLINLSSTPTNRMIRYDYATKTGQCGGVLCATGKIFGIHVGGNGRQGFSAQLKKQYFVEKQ

CCOC(=O)/C=C/[C@H](C[C@@H]1CCNC1=O)NC(=O)[C@H](Cc1ccc(F)cc1)OC(=O)[C@@H](NC(=O)c1cc(C)on1)C(C)C [Compound C-2, Ethyl-3-{(5′-Methylisoxazole-3′-carbonyl)-L-Val-O-L-(4-F-Phe)-L-((S)-Pyrrol-Ala)}-E-Propenoate]
EC50 (HRV (13)): 7 nM | kinact/KI [1]: 270000 M⁻¹ s⁻¹ | EC50 (HRV (89)): 4 nM | EC50 (HRV (17)): 7 nM | EC50 (HRV (25)): 70 nM | EC50 (HRV (39)): 10 nM | EC50 (HRV (38)): 50 nM | EC50 (HRV (1A)): 10 nM | EC50 (HRV (16)): 10 nM | EC50 (HRV (12)): 40 nM | EC50 (HRV (10)): 20 nM | EC50 (HRV (2)): 4 nM | EC50 (HRV (30)): 30 nM | EC50 (HRV-14; Table 1, XTT dye reduction, read-out: Cell Protection EC50): 2 nM | EC50 (HRV-14; Table 3, XTT, read-out: EC50): 2 nM | EC50 (HRV (87)): 20 nM | EC50 (HRV (3)): 20 nM | EC50 (HRV (9)): 10 nM

CCOC(=O)c1ccc(OCCC2CCN(c3ccc(C)nn3)CC2)cc1 [Pirodavir, reference compound]
EC50 ([2]; Strain CAV-21, H1-HeLa cells, two days, XTT, read-out: EC50): > 100000 nM | EC50 ([3]; Strain CVB-3, H1-HeLa cells, one day, XTT, read-out: EC50): > 100000 nM | EC50 [4]: 60 nM | EC50 (HRV-14; Table 3, XTT, read-out: EC50): 30 nM | EC50 ([5]; Strain EV-11, MRC-5 cells, four days, XTT, read-out: EC50): 3700 nM

Cc1cc(CCCOc2c(C)cc(-c3noc(C(F)(F)F)n3)cc2C)on1 [Pleconaril, reference compound]
EC50 ([2]; H1-HeLa): 90 nM | EC50 ([3]; H1-HeLa): > 10000 nM | EC50 (HRV-14; Table 3, XTT, read-out: EC50): 10 nM | EC50 [5]: 160 nM
